Results: US20210386674A1, “MODIFIED RELEASE TABLET FORMULATIONS CONTAINING PHOSPHODIESTERASE INHIBITOR” (UNION therapeutics A/S, priority 2019, published 2021)

How the values were obtained:
[1] = Oral absorption window in the gastrointestinal tract; assay type: in vivo; conditions: given orally; upper part of the gastrointestinal tract
Solubility of Compound A = assay type: physicochemical

Absorption window [1]: very narrow absorption window
Solubility (Solubility of Compound A): poorly soluble
SMILES: O=C(Cc1c(Cl)c[n+]([O-])cc1Cl)c1ccc(OC(F)F)c2c1OC1(CCS(=O)(=O)CC1)O2 [Compound A, 2-(3,5-Dichloro-1-oxido-pyridine-4-yl)-1-(7-difluoro-methoxy-2′,3′,5′,6-tetrahydro-spiro[1,3-benzodioxole-2,4-(4H)-thiopyran-1′,1′-dioxide]-4-yl)ethanone]
